Experimental data published in patent US20240109917A1 (ACTELION PHARMACEUTICALS LTD, priority 2020, published 2024).

Columns and labels:
VEGFR2, unphosphorylated = VEGFR2, unphosphorylated (Homo sapiens (Human), UniProt P35968); test: VEGFR ADP GLO Assay; type: biochemical
[1] = biological target: Tb-labeled inactive PDGFRβ (Homo sapiens (Human), UniProt P09619); test: PDGFRβ LanthaScreen Assay; type: binding; details: read-out: PDGFR Lantha IC50
Tb-labeled inactive PDGFRβ, sequence (P09619 33-1106): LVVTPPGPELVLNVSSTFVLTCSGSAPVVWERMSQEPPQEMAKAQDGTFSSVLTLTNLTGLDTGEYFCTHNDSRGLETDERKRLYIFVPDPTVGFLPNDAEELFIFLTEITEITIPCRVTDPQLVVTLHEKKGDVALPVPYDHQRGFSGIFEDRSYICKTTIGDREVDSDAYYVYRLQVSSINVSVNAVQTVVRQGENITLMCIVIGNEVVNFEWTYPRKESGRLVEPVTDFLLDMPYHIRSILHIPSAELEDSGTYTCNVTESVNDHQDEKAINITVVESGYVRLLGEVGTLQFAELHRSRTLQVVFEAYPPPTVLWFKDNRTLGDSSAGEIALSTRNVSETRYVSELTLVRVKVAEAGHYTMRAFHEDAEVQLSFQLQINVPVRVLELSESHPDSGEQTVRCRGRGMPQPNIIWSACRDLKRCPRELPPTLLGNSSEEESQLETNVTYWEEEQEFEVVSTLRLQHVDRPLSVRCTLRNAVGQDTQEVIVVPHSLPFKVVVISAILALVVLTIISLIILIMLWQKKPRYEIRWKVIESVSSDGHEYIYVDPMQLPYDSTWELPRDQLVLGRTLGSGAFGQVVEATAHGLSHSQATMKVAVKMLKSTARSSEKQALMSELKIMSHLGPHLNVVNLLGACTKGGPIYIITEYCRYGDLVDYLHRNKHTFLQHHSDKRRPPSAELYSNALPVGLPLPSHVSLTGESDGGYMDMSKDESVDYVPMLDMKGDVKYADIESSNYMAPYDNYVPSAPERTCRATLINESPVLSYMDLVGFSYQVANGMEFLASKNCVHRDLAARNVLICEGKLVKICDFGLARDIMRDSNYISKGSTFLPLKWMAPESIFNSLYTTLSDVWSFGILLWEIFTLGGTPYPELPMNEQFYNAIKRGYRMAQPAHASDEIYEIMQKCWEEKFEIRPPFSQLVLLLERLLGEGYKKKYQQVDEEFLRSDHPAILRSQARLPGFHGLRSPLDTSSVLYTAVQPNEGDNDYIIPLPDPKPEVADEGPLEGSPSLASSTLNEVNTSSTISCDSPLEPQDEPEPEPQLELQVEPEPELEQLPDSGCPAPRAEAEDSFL

VEGFR2, unphosphorylated, sequence (P35968 20-1356): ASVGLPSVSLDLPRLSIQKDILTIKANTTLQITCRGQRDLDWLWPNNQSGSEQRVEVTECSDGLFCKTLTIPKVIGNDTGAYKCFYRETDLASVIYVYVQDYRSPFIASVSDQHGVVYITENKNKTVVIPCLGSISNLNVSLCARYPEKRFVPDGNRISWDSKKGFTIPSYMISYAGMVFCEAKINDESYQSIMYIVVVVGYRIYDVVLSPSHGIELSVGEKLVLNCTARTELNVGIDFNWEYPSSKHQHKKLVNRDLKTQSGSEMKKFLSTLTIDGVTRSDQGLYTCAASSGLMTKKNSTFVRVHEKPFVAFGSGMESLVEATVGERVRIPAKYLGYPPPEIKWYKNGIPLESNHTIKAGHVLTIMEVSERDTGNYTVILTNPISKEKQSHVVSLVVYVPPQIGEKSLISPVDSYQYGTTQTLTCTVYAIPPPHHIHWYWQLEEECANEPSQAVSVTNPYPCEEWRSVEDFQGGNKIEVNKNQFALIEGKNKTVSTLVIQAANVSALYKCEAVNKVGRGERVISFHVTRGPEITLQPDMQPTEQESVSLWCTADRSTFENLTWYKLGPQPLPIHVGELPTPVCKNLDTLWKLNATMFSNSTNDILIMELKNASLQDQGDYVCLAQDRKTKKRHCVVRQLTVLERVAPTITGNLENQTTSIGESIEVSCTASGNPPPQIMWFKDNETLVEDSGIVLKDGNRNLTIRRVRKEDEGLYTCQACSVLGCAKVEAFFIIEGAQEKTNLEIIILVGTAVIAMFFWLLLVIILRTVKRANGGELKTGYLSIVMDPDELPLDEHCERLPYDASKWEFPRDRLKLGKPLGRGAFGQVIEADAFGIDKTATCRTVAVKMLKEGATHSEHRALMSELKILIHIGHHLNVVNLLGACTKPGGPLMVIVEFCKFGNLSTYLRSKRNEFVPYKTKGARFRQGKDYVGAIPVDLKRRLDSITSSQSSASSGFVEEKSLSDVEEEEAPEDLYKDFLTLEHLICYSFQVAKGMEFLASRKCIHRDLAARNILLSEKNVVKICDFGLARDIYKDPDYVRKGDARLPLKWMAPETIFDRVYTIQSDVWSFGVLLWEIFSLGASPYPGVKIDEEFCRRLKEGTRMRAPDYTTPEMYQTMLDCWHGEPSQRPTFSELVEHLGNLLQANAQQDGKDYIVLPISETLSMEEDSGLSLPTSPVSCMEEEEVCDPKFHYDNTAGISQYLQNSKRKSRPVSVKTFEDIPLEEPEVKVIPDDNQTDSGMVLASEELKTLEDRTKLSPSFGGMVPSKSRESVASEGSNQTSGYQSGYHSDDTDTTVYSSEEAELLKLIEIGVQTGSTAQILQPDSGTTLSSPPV

**Q.** Which IC50 (VEGFR2, unphosphorylated) does the source give for `Cc1ncc(C(=O)NCCN2CCCC2(C)C)cc1NC(=O)c1cnn2cc(-c3ccncc3)sc12` [Example 7, N-(5-((2-(2,2-dimethylpyrrolidin-1-yl)ethyl)carbamoyl)-2-methyl-pyridin-3-yl)-2-(pyridin-4-yl)pyrazolo[5,1-b]thiazole-7-carboxamide] here?
**A.** > 7500 nM

**Q.** What about the IC50 [1] of the same molecule?
**A.** 8.3 nM

**Q.** `Cc1ncc(C(=O)NCCN2CCC3(CC3)C2)cc1NC(=O)c1cnn2cc(-c3ccncc3)sc12` [Example 153, N-(5-((2-(5-azaspiro[2.4]heptan-5-yl)ethyl)carbamoyl)-2-methylpyridin-3-yl)-2-(pyridin-4-yl)pyrazolo[5,1-b]thiazole-7-carboxamide] was tested. Which IC50 (VEGFR2, unphosphorylated) did it give?
**A.** > 7500 nM

**Q.** And the IC50 [1]?
**A.** 18 nM

**Q.** What does the source list for `COCCn1cc(-c2cn3ncc(C(=O)Nc4cc(C(=O)NCCN5CCC(F)(F)CC5)cnc4C)c3s2)cn1` [Example 165, N-(5-((2-(4,4-difluoropiperidin-1-yl)ethyl)carbamoyl)-2-methylpyridin-3-yl)-2-(1-(2-methoxyethyl)-1H-pyrazol-4-yl)pyrazolo[5,1-b]thiazole-7-carboxamide]?
**A.** IC50 (VEGFR2, unphosphorylated): > 7500 nM; IC50 [1]: 3.4 nM

**Q.** What does the source list for `Cc1ncc(NC(=O)NCC2CCN(C(C)C)CC2)cc1NC(=O)c1cnn2cc(-c3cnn(C)c3)sc12` [Example 109, N-(5-(3-((1-isopropylpiperidin-4-yl)methyl)ureido)-2-methylpyridin-3-yl)-2-(1-methyl-1H-pyrazol-4-yl)pyrazolo[5,1-b]thiazole-7-carboxamide]?
**A.** IC50 (VEGFR2, unphosphorylated): > 7500 nM; IC50 [1]: 1900 nM

**Q.** `Cc1ncc(C(=O)NCCN2CCC(C)(C)C2)cc1NC(=O)c1cnn2cc(-c3ccncc3)sc12` [Example 156, N-(5-((2-(3,3-dimethylpyrrolidin-1-yl)ethyl)carbamoyl)-2-methylpyridin-3-yl)-2-(pyridin-4-yl)pyrazolo[5,1-b]thiazole-7-carboxamide] was tested. Which IC50 (VEGFR2, unphosphorylated) did it give?
**A.** > 7500 nM

**Q.** And the IC50 [1]?
**A.** 9.8 nM

**Q.** Which IC50 (VEGFR2, unphosphorylated) does the source give for `Cc1ncc(C(=O)NCCN2CCCC23COC3)cc1NC(=O)c1cnn2cc(-c3c(C)nn(C)c3C)sc12` [Example 179, N-(5-((2-(2-oxa-5-azaspiro[3.4]octan-5-yl)ethyl)carbamoyl)-2-methylpyridin-3-yl)-2-(1,3,5-trimethyl-1H-pyrazol-4-yl)pyrazolo[5,1-b]thiazole-7-carboxamide] here?
**A.** > 7500 nM

**Q.** What about the IC50 [1] of the same molecule?
**A.** 6.9 nM

**Q.** What does the source list for `Cc1ncc(C(=O)NCCN2Cc3ncsc3C2)cc1NC(=O)c1cnn2cc(-c3cnn(C)c3)sc12` [Example 111, N-(5-((2-(4H-pyrrolo[3,4-d]thiazol-5 (6H)-yl)ethyl)carbamoyl)-2-methylpyridin-3-yl)-2-(1-methyl-1H-pyrazol-4-yl)pyrazolo[5,1-b]thiazole-7-carboxamide]?
**A.** IC50 (VEGFR2, unphosphorylated): > 7500 nM; IC50 [1]: 36.4 nM
